Measured values taken from patent US20060151574A1, “Formulations useful against hepatitis C virus infections” (priority 2002, published 2006).

Tests used:
HCV replicon cell lines = assay: HCV replicon cell lines: HCV RNA by Northern Blotting, NS5a by Western Blotting; assay type: cell-based, Hepatitis C virus
Description: The only reliable experimental animal HCV infection studies have been performed with chimpanzees. So far, there is no simple cell culture infection system available or HCV. Although a number of reports have been published describing in vitro propagation attempts of HCV in primary cells and cell lines, questions remain concerning reproducibility, low levels of expression and properly controlled detection methods (reviewed in J. Gen Virol. 81, 1631; Antiviral Chemistry and Chemotherapy 10, 99). Thus, the replicon system described by Bartenschlager and coworkers (Lohmann et al, Replication of subgenomic hepatitis C virus RNAs in a hepatoma cell line. Science 285, 110. 1999) was used for the studies disclosed herein. This replicon system reproduces a crucial part of the HCV replication cycle which is used as a system for simulating HCV infection. Bartenschlager's group produced bicistronic recombinant RNAs, so-called “replicons”, which carry the neomycin-phosphotransferase (NPT) gene as well as a version of the HCV genome where the sequences for the structural HCV proteins were deleted. After transfection of the subgenomic HCV RNA molecules into the human hepatoma cell line HuH-7, cells supporting efficient RNA-dependent RNA replication of the HCV replicons were selected based on co-amplification of the NPT gene and resulting resistance to the antibiotic G-418. Integration of coding information into the cellular genome was an exclusion criteria for functional replicons. Several lines were established from G-418 resistant clones with autonomously replicating HCV RNAs detectable by Northern Blotting.
Possible influences and/or dependencies of HCV's RNA-dependent RNA replication and nonstructural proteins on host cell transcription are accessible to analysis with the Clontech cDNA arrays used in the methods described herein. HuH-pcDNA3 cells are HuH7 cells resistant to G-418 by integration of a NPT gene-carrying plasmid (pcDNA3, Invitrogen) and serve as negative control. Three replicon lines were analyzed for changes in cellular RNA expression patterns compared to the control line: • HuH-9-13: cell line with persistant replicon IRES377/NS3-3′/wt, described in Science 1999, 285, 110-113, • HuH-5-15: cell line with persistant replicon IRES389/NS3-3′/wt, described in Science 1999, 285, 110-113, • HuH-11-7: cell line with persistant replicon IRES377/NS2-3′/wt, described in Science 1999, 285, 110-113.
(§1) Moreover, as model system for HCV replication there were utilized three replicon cell lines provided by Prof. R. Bartenschlager (University of Heidelberg, FRG). Cultures were treated for various periods of time with all bans retinoic acid (RA) for comparative purposes and the other agents selenium, selenium salts, Vitamin D3 and retinoids, like 9-cis retinoic acid, C1-C10 alkyl esters of 9-cis retinoic acid, C1-C10 alkyl amides of 9-cis retinoic add, N-(4-hydroxyphenyl)retinamide (4-HPR) and 6-[3-(1-adamantyl)+hydroxyphenyl]-2-naphthalene carboxylic acid (CD437; AHPN) (obtained from Sigma). Levels of expression of GI-GPx was measured on protein level by Western Blotting using antibodies provided by Prof. Brigelius-Flohe (University of Potsdam, FRG) and on RNA level by Northern blotting using GI-GPx-specific oligonucleotides as probes. Levels of HCV RNA were investigated by Northern Blotting using a DNA oligonucleotide complementary to the neomycin phosphotansferase gene as probe. Concentration of the viral protein NS5a was determined by Western Blotting with an NS5a-specific antibody (Biogenesis, UK).

[1] = tested on: nuclear receptors (RAR, RXR); assay: Ability to act as ligands for nuclear receptors; assay type: binding
replicon cells = assay: Cytotoxic effects on replicon cells
RAR = assay: Ligands for nuclear receptors: effector concentration; assay type: biochemical; settings: read-out: EC50 (effector concentration, concentration showing 50% effect)
interferon receptors = assay: Expression of interferon receptors in replicon cells by western Blotting; assay type: cell-based, human
GI-GPx = GI-GPx expression in replicon cells (Western / Northern blotting); assay type: cell-based, human
Description: as §1

PKR mRNA = PKR mRNA levels by Northern blotting (interferon response); assay type: cell-based, human
Description: In the course of retinoic acid studies it was investigated whether the RA-effect may also be mediated by activating an interferon response. A typical interferon-inducible gene codes for the double-stranded RNA-dependent protein kinase (PKR).

[2] = replicon cells, 1 μM, three days
[3] = 1 μM, seven days, depending on the cell line
[4] = HCV replicon cell lines, FIG. 1 Panel A
[5] = six days, in the presence of selenium or a selenium salt like sodium selenite

CC1=C(/C=C/C(C)=C/C=C/C(C)=C\C(=O)O)C(C)(C)CCC1 [13-cis RA, 13-cis retinoic acid]
Effect on Replication (HCV replicon cell lines): +++

CC1(C)CCC(C)(C)c2cc(C(=O)Nc3ccc(C(=O)O)cc3)ccc21 [AM-580, (4-[5,6,7,8-tetrahydro-5,5,8,8-tetramethyl-2-naphtalenyl)carbox-amido]benzoic acid]
Receptor(s) [1]: RARα/not RXR | Effect on Replication (HCV replicon cell lines): ++

C=C1CC[C@H](O)C/C1=C/C=C1\CCC[C@]2(C)[C@@H]([C@H](C)CCCC(C)C)CC[C@@H]12 [Vitamin D3]
reducing HCV load (HCV replicon cell lines): capable of reducing HCV load

O=[Se](O)O [sodium selenite]
Severe cytotoxic effects (replicon cells; substance alone): neither observed

CC1=C(/C=C/C(C)=C/C=C/C(C)=C/C(=O)Nc2ccc(O)cc2)C(C)(C)CCC1 [4-HPR, N-(4-hydroxyphenyl)retinamide]
Receptor(s) [1]: RAR | Effect on Replication (HCV replicon cell lines): ++

C/C(=C\c1ccc(C(=O)O)cc1)c1ccc2c(c1)C(C)(C)CCC2(C)C [TTNPB]
Receptor(s) [1]: RAR | Effect on Replication (HCV replicon cell lines): +++ | EC50 (RAR): […]

COC(C)(C)CCCC(C)C/C=C/C(C)=C/C(=O)O (stereo not drawn) [Methoprene acid, 11-methoxy-3,7,11-trimethyl-2E,4E-dodecadienoic acid]
Receptor(s) [1]: RXR | Effect on Replication (HCV replicon cell lines): −

CC1=C(/C=C/C(C)=C\C=C\C(C)=C\C(=O)O)C(C)(C)CCC1 [9-cis RA, 9-cis retinoic acid]
Effect on Replication (HCV replicon cell lines): +++ | reducing HCV load (HCV replicon cell lines): capable of reducing HCV load | downregulate HCV RNA, compared with all trans retinoic acid alone (HCV replicon cell lines; first preliminary result): significantly better

CC1=C(/C=C/C(C)=C/C=C/C(C)=C/C(=O)O)C(C)(C)CCC1 [ATRA, all trans retinoic acid]
interferon receptors on protein level (interferon receptors): no up-regulation | Receptor(s) [1]: RAR | up-regulation of GI-GPx on RNA- and protein level (GI-GPx; 1 μM, seven days of incubation): three- to ten-fold | GI-GPx gene expression (GI-GPx; HCV replicon cell lines, FIG. 1 Panel B): up-regulation | effect on GI-GPx expression (GI-GPx; [2]): hardly an effect | upregulation of GI-GPx RNA and protein (GI-GPx; replicon cells, six days): upregulation | transcription of PKR (PKR mRNA): did not induce | PKR mRNA levels (PKR mRNA; mock-transfected HuH7 cells (pcDNA3) and replicon cell lines, ATRA 1 μM, IFN as control, FIG. 1 Panel C): no up-regulation | Effect on Replication (HCV replicon cell lines): +++ | expression of subgenomic HCV RNA downregulated (HCV replicon cell lines; [3]): two- to five-fold | expression of viral protein NS5a downregulated (HCV replicon cell lines; [3]): two- to five-fold | HCV RNA (HCV replicon cell lines; [4]): suppression | NS5a protein expression (HCV replicon cell lines; [4]): suppression | HCV down-regulation by IFN alpha (HCV replicon cell lines; in the presence of RA, FIG. 2 center Panel): slightly enhanced | effect on HCV expression (HCV replicon cell lines; [2]): hardly an effect | reduction of HCV-NS5a protein (HCV replicon cell lines; [5]): two- to five-fold | reduction of HCV-RNA (HCV replicon cell lines; [5]): two- to five-fold | toxic effects (replicon cells; [5]): absence of toxic effects
